“And” between values parts separate entries of the source, which are not always exact repeats. Identical values can stand only once.

The target of the assay is SARS-CoV-2 Main Protease (SARS-CoV-2) (UniProt P0DTD1).
As to `O=C(Cc1cc(Cl)cc(Nc2c(Br)cncc2[N+](=O)[O-])c1)Nc1cncc2ccccc12`, the 50% inhibitory concentration (IC50) (in general, the concentration that gives 50% inhibition) worked out at 1.83 µM. Under `Cc1ncc(CO)c(CNc2cc(Cl)cc(CC(=O)Nc3cncc4ccccc34)c2)c1O` stands 9.11 µM; under `O=c1[nH]c2ccc(NC(=S)Nc3ccccc3Cl)cc2[nH]1`, over 99.5 µM; under `O=C(NCCc1cccc(F)c1)C(c1cccnc1)N(Cc1c(O)ccc2c1CCCC2)C(=O)c1ccco1` (configuration not stated), 12.1 µM. As for `C=CC(=O)NCC(=O)N(Cc1ccccc1)C[C@H](O)c1cccs1` (stereo in doubt), the concentration for half-maximal inhibition (IC50) is over 99.5 µM. For `N#Cc1cccc(C2CN(C(=O)CCl)Cc3ccccc32)c1` (configuration not stated) the value was 1.17 µM. For `Cc1ccncc1NC(=O)Cc1cc(Cl)cc(NC2CCC(F)(F)C2O)c1` (configuration not stated) the value was 23 µM; for `O=C1CCC(c2ccc(N(C(=O)c3cocn3)C(C(=O)NCCc3cccc(F)c3)c3cccnc3)cc2)N1` (configuration not stated), over 99.5 µM; for `CN1CCn2nc(C(=O)N(c3ccc(C(C)(C)C)cc3)C(C(=O)NCCc3cccc(F)c3)c3cccnc3)cc2S1(=O)=O` (configuration not stated), over 99.5 µM. For `Cc1cc(C)c(C)c(S(=O)(=O)N2CCN(C(=O)c3cc(=O)[nH]c4ccccc34)CC2)c1C` the value was 8.19 µM and 8.74 µM; for `NS(=O)(=O)c1cc(CN2CCN(C(c3ccccc3)c3ccccc3)CC2)co1`, over 99.5 µM; for `O=C1CC(NC(=O)Cc2cccc(Cl)c2)C(=O)N1` (configuration not stated), over 99.5 µM. On to `COc1ccccc1C(=O)N(c1ccc(C(C)(C)C)cc1)C(C(=O)NCCc1cccc(F)c1)c1cccnc1` (configuration not stated), for which the half-inhibitory concentration (IC50) was over 99.5 µM. Under `Cc1cccc(NC(=O)[C@@H](c2ccccc2)N2Cc3ccccc3C2=O)n1` (stereo in doubt) stands over 99.5 µM. Under `CN1CC(C#N)(CS(=O)(=O)N2Cc3ccc(Cl)cc3C(C(=O)Nc3cncc4ccccc34)C2)C1` (configuration not stated) stands 0.151 µM; under `O=C(Nc1ccc2nccnc2c1)c1csc2cncn12`, over 99.5 µM; under `O=C(Cc1cc(Cl)cc(Nc2ccncc2Br)c1)Nc1cncc2ccccc12`, 2.18 µM. For `N#Cc1nccc(Cl)n1` the value was over 99.5 µM. Regarding `O=C(Cc1cc(Cl)cc(Nc2cc(Br)ccc2F)c1)Nc1cncc2ccccc12`, the IC50 amounted to 1.9 µM. For `Cn1c(NC(=O)c2cccnc2-n2cccn2)nc2cc(F)ccc21` the value was over 99.5 µM; for `CN(Cc1ccccc1Nc1cc(Cl)cc(CC(=O)Nc2cncc3ccccc23)c1)C1CCCCC1`, 2.22 µM; for `C=CC(=O)N(c1ccc(C(C)(C)C)cc1)C(C(=O)NC(C)(C)C)c1cncc(Cl)c1` (configuration not stated), 65.6 µM. For `O=C(NCCc1cccc(F)c1)C(c1cccnc1)N(C(=O)c1cocn1)c1ccccc1` (configuration not stated) the value was 89.2 µM. Under `CC(C)(C)c1ccc(N(C(=O)c2cc(=O)[nH]c(=O)[nH]2)C(C(=O)NCCc2cccc(F)c2)c2cccnc2)cc1` (configuration not stated) stands over 99.5 µM; under `O=C(NCCc1cccc(F)c1)C(c1cccnc1)N(C(=O)c1cocn1)[C@H]1C[C@H](Oc2ccccc2)C1` (some centres not stated), over 99.5 µM. Compound `NC(=O)CN1CCCN(C(=O)CCSc2ccc(F)cc2)CC1` showed a half-maximal inhibitory concentration (IC50) of over 99.5 µM. Under `O=C(Nc1ccc(Cl)cc1)[C@@H](c1ccccc1)N1Cc2ccccc2C1=O` (stereo in doubt) stands over 99.5 µM. For `O=C(Cc1cc(Cl)cc(Nc2ccc([N+](=O)[O-])cc2Cl)c1)Nc1cncc2ccccc12` the value was 2.18 µM. For `Cc1ccncc1NC(=O)Cc1cc(Cl)cc(NC2CCCC2O)c1` (configuration not stated) the value was 19.7 µM; for `O=C(NCCc1ccccc1)[C@@H]1CN(C(=O)CCl)CCN1S(=O)(=O)c1ccsc1` (stereo in doubt), 1.28 µM; for `Cc1ccc2c(NC(=O)Cc3cccc(Cl)c3)cncc2c1`, 1.24 µM. Compound `COc1cc(Nc2cc(Cl)cc(CC(=O)Nc3cncc4ccccc34)c2)nc(OC)n1` gave an IC50 of 2.21 µM. For `O=C1CC(C(=O)Nc2cncc3ccccc23)c2cc(Cl)cc(Cl)c2N1` (configuration not stated), the IC50 is 2.45 µM and 3.76 µM. In turn, `CN(C(=O)Cn1nnc2ccccc21)c1ccc(Oc2ccc(C(F)(F)F)cn2)cc1` yielded an IC50 of 37.8 µM. This counts as double-digit micromolar. Take `CC(C)(C)c1ccc(N(C(=O)c2c[nH]c(=O)s2)C(C(=O)NCCc2cccc(F)c2)c2cccnc2)cc1` (configuration not stated): the IC50 worked out at 29.1 µM. The IC50 values of the last two compounds are within 1.5-fold of each other. For `CC(C)(C)c1ccc(N(C(=O)c2cocn2)C(C(=O)NCCc2cccc(F)c2)c2cnccn2)cc1` (configuration not stated) the value was 1.21 µM; for `O=C(Cc1cc(Cl)cc(Nc2cnc(Br)cn2)c1)Nc1cncc2ccccc12`, 2.07 µM; for `C=CC(=O)N(c1ccc(C(F)(F)F)cc1)C(C(=O)NCCc1cccc(F)c1)c1cncc(Cl)c1` (configuration not stated), 23.9 µM.

In turn, `COCCNC(=O)C(c1cccnc1)N(C(=O)c1cocn1)c1ccc(C(C)(C)C)cc1` (configuration not stated) showed an IC50 of 8.46 µM.

Consider `C=CC(=O)NCC(=O)N(Cc1ccccc1)C[C@@]1(O)CN2CCC1CC2` (stereo in doubt), for which the IC50 is over 99.5 µM. Under `CC(C)(C)c1ccc(N(C(=O)c2cnsn2)C(C(=O)NCCc2cccc(F)c2)c2cccnc2)cc1` (configuration not stated) stands 13.2 µM; under `CC1CCNC(=O)C1NC(=O)Cc1cccc(Cl)c1` (configuration not stated), 43.7 µM. With `O=C(Nc1ccccc1)[C@@H]1CN(C(=O)CCl)CCN1S(=O)(=O)c1ccsc1` (stereo in doubt), the concentration for half-maximal inhibition (IC50) is 0.716 µM. Compared with the last compound, the IC50 is about 61-fold lower. For `O=C(Cc1cc(Cl)cc(N[C@H]2C(O)O[C@H](CO)[C@@H](O)[C@@H]2O)c1)Nc1cncc2ccccc12` (stereo in doubt) the value was 2.92 µM; for `COc1ccc(CC(=O)Nc2cncc3ccccc23)cc1`, 72.5 µM. For `O=C(Cc1cc(Cl)cc(Oc2cccnc2)c1)Nc1cncc2ccccc12` the value was 1.14 µM and 1.57 µM and 1.17 µM; for `O=C(CCc1cccc(Cl)c1)Nc1cncc2ccccc12`, 20.8 µM. The compound `CC(C)CN1CC(C)(C(=O)Nc2cncc3ccccc23)c2cc(Cl)ccc2S1(=O)=O` (configuration not stated) registered a half-inhibitory concentration (IC50) of 0.153 µM. For the compound `CCOC(=O)CCNC(=O)C(c1cccnc1)N(C(=O)c1cocn1)c1ccc(C(C)(C)C)cc1` (configuration not stated), the IC50 was 2.8 µM. For `O=C(Cc1cc(O)cc(Cl)c1)Nc1cncc2ccccc12` the value was 9.89 µM; for `CCNc1ncc(C#N)cc1CN1CCN(C(=O)CCl)CC1`, 3.22 µM; for `CC(C)(C)c1ccc(N(C(=O)C2CCCO2)C(C(=O)NCCc2cccc(F)c2)c2cccnc2)cc1` (configuration not stated), 5.56 µM.

As for `OC(Cc1cccc(Cl)c1)Cn1cncn1` (configuration not stated), the concentration for half-maximal inhibition (IC50) was found to be 65.3 µM. For `O=C(Cc1cc(Cl)cc(N2CCN(C(=O)[C@@H]3COc4ccccc4O3)CC2)c1)Nc1cncc2ccccc12` (stereo in doubt) the value was 2.74 µM; for `Cc1nccn1Cc1ccc2c(NC(=O)C3CCOc4ccc(Cl)cc43)cncc2c1` (configuration not stated), 5.32 µM; for `Cc1cc(C)c(C#N)c(Sc2ncnc3c2nnn3Cc2ccccc2)n1`, 0.649 µM. `Cc1nc2ccc(NC(=O)Cn3ncn4nccc4c3=O)cc2s1` registered an IC50 of over 99.5 µM. For the compound `CN(C)C(=O)CN1CCN(c2cc(Cl)cc(CC(=O)Nc3cncc4ccccc34)c2)CC1`, the 50% inhibitory concentration (IC50) stood at 2.85 µM. The compound `O=C(Cc1cc(Cl)cc(Nc2ccc(SC(F)(F)F)cc2)c1)Nc1cncc2ccccc12` came in with an IC50 of 1.84 µM.

Regarding `CCOc1ccc(N(C(=O)c2cocn2)C(C(=O)NCCc2cccc(F)c2)c2cccnc2)cn1` (configuration not stated), the IC50 was over 99.5 µM. Under `CC(C)(C)OC(=O)N1CCC(NC(=O)C(c2cccnc2)N(C(=O)c2cocn2)c2ccc(C(C)(C)C)cc2)C1` (configuration not stated) stands 3.65 µM. Under `CS(=O)(=O)Nc1ccc2cncc(NC(=O)C3CNC(=O)c4ccc(Cl)cc43)c2c1` (configuration not stated) stands 0.195 µM; under `CCc1cc(Br)ccc1Nc1cc(Cl)cc(CC(=O)Nc2cncc3ccccc23)c1`, 3.15 µM; under `O=C(Cc1cc(Cl)cc(N2CCN(C(=O)C3CC3)CC2)c1)Nc1cncc2ccccc12`, 2.01 µM.

`Cc1cc(F)cc2cncc(NC(=O)Cc3cccc(Cl)c3)c12` came in with a half-inhibitory concentration (IC50) of 0.851 µM.

The compound `O=C(CN1CC(C(=O)Nc2cncc3ccccc23)c2cc(Cl)ccc2C1=O)NC1CCC1` (configuration not stated) had a concentration for half-maximal inhibition (IC50) of 0.129 µM. For `CCN(C)CCOc1ccc2cncc(N3CCC4(CN(S(=O)(=O)CC5(C#N)CC5)Cc5ccc(Cl)cc54)C3=O)c2c1` (configuration not stated) the value was 0.401 µM; for `O=C(CN(C(=O)Cn1nnc2ccccc21)c1ccc(-c2ccccc2)cc1)N1CCNCC1`, over 99.5 µM.

The compound `COc1cc(COc2cc(Cl)cc(CC(=O)Nc3cnccc3C)c2)ccc1OC(F)F` came in with an IC50 of over 99.5 µM. Under `COC(=O)/C=C/C(=O)N(C(=O)[C@H]1CCOc2ccc(Cl)cc21)c1cncc2ccccc12` (stereo in doubt) stands 4.36 µM; under `O=C(CCl)N1CCCN(S(=O)(=O)c2cccs2)CC1`, 7.24 µM. For `O=C(Cc1cccc(Cl)c1)N1CC(O)Cc2ccccc21` (configuration not stated) the value was over 99.5 µM. For `O=C(Cc1cc(Cl)cc(N2CCc3c([nH]c4ccccc34)C2)c1)Nc1cncc2ccccc12`, the 50% inhibitory concentration (IC50) was 2.02 µM. Take `O=C(Cc1cc(Cl)cc(Nc2c(F)cc(Br)cc2F)c1)Nc1cncc2ccccc12`: the IC50 was 1.54 µM. Consider `Cc1cc(O)c(C(C(=O)NCCc2cccc(F)c2)N(C(=O)c2cocn2)c2ccc(C(C)(C)C)cc2)c(=O)[nH]1` (configuration not stated), for which the IC50 was over 99.5 µM. For `COc1ccc(Cl)cc1OCCNC(=O)c1cc(=O)[nH]c2ccccc12` the value was over 99.5 µM. For `Cc1nc(Cl)c(Nc2cc(Cl)cc(CC(=O)Nc3cncc4ccccc34)c2)c(Cl)n1` the value was 1.64 µM. In turn, `Cc1ccncc1NC(=O)Cc1cc(Cl)cc(NC2(C)CCC(F)(F)CC2)c1` showed an IC50 of 14.7 µM.

Take `O=C(Cc1cc(Cl)cc(Nc2cncc(Br)c2)c1)Nc1cncc2ccccc12`: the half-maximal inhibitory concentration (IC50) amounted to 2.16 µM. Under `Cc1ccn2cnnc2c1NC(=O)Cc1cccc(Cl)c1` stands 75.3 µM; under `CCCCOc1ccc(Cl)cc1CC(=O)Nc1cnccc1C`, 24.8 µM; under `O=C(NCCc1cccc(F)c1)C(c1cccnc1)N(C(=O)c1cocn1)c1ccc(-c2nnc3n2CCC3)cc1` (configuration not stated), over 99.5 µM. For `CN(C)CCOc1ccc2cncc(NC(=O)C3CN(S(=O)(=O)CC4(C#N)CC4)Cc4ccc(Cl)cc43)c2c1` (configuration not stated) the value was 0.117 µM. Under `O=C(Cc1cc(Cl)cc(OC2CCC(=O)N2)c1)Nc1cncc2ccccc12` (configuration not stated) stands 85.9 µM.

The compound `O=C(CCl)N1CCN(Cc2cccc3ccccc23)CC1` showed a half-inhibitory concentration (IC50) of 5.76 µM. For `O=C(Cc1cc(Cl)cc(Nc2cccc(Br)n2)c1)Nc1cncc2ccccc12` the value was 1.92 µM. For `Cc1ccncc1NC(=O)C(C)c1cccc(C#N)c1` (configuration not stated) the value was 55.2 µM and 54.7 µM.

Source of the values: the COVID Moonshot data (paper PMC7615835).
